In paper PMC5738440, “Identification and characterization of the structure–activity relationships involved in UGT1A1 inhibition by anthraquinone and dianthrone constituents of Polygonum multiflorum” (Scientific Reports, 2017):
Where two headings read alike, the source gives them in different places.

Tests used:
UGT1A1 [1] = target: T1, UGT1A1 (Rattus norvegicus, UniProt Q64550); experiment: UGT1A1 inhibition: bilirubin glucuronidation in rat liver microsomes (RLM), enzyme inhibition kinetics; settings: for Mode of inhibition: Lineweaver-Burk and Dixon plots
T1 sequence (Q64550 30-535): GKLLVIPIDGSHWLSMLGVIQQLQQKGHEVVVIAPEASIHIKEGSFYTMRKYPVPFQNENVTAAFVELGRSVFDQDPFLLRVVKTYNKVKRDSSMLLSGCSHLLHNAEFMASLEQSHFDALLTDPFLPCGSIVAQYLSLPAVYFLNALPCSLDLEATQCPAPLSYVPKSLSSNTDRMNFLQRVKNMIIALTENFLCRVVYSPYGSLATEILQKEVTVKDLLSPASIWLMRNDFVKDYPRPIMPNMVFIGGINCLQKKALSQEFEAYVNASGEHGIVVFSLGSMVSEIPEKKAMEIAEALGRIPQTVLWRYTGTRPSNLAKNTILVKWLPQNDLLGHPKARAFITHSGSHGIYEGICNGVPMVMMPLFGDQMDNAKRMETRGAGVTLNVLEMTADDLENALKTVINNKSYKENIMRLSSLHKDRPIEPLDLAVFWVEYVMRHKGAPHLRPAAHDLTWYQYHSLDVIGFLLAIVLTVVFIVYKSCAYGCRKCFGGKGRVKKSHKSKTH
Protocol: UGT1A1 activity assays were conducted at 37 °C in a shaking water bath[41]. Incubation mixtures (final volume, 0.2 mL) contained 0.5 mg/mL RLM, 0.1 M Tris-HCl (pH 7.4), 5 mM MgCl2, 5 mM D-saccharic acid 1,4-lactone, 3.5 mM UDPGA, and 50 mg/g protein alamethicin. Bilirubin (as a UGT1A1 substrate) and the test samples were dissolved in 100% dimethylsulfoxide (DMSO) immediately before being added to the incubation mixtures. […] The reaction was initiated by adding UDPGA after a 5-min pre-incubation at 37 °C; it was terminated after 10 min by adding 0.6 mL of ice-cold methanol: acetonitrile (1:2) containing 200 mM ascorbic acid. Proteins were precipitated by centrifugation at 13,000 × g for 30 min at 4 °C prior, and the supernatants were analyzed by UPLC.The assays were done in triplicates respectively.
Bilirubin glucuronidation was evaluated in the presence of various concentrations of bilirubin and potential inhibitors, as described above. Samples were analyzed in triplicate to determine their inhibition constants (Ki). For assays with inhibitors, the bilirubin concentration was 0.12 to 1.37 μM.
The inhibition kinetic type and parameters were determined by fitting the reaction velocities of different concentrations of test components (inhibitors) and bilirubin (substrate). Lineweaver–Burk and Dixon fitting equations were employed to determine the inhibition type, and the second plot (drawn using the slope of lines in the Lineweaver–Burk plot versus inhibitor concentrations) was used to calculate the Ki values. The results were analyzed using GraphPad Prism 5 software (GraphPad Inc., San Diego, CA, USA)[48]. […] The goodness-of-fit of the inhibition models was estimated using the F statistic, R^2 value, parameter standard error estimates, and 95% confidence intervals.

UGT1A1 [2] = settings: HLM system, competitive; cited from earlier work
UGT1A1 [3] = target: T1, UGT1A1; settings: RLM system, competitive; cited from earlier work
rUGT1A1 = rUGT1A1 system, competitive; cited from earlier work
[4] = Ki value, bilirubin substrate, extract concentration based on emodin content

`Cc1cc(O)c2c(c1)C(C1c3cc(C)cc(O)c3C(=O)c3c(O)cc(O)cc31)c1cc(O)cc(O)c1C2=O` (stereo not drawn) [Cis-emodin dianthrones] showed a Ki (UGT1A1 [1]; [4]) of 0.863 µM.
With `O=C1c2cc(O)cc(O)c2C(=O)c2c(O)cc(CO)cc21` [Citreorosein] the Ki (UGT1A1 [1]; [4]) was 18.6 µM and the Mode of inhibition (UGT1A1 [1]) was “Mixed Type inhibition”.
In the case of `Cc1cc(O)c2c(c1)C(=O)c1cc(O)cc(O)c1C2=O` [Emodin], the Ki (UGT1A1 [2]) is given as 5.4 ± 0.956 µM, the Ki (UGT1A1 [1]; [4]) is given as 10 µM and the Mode of inhibition (UGT1A1 [1]) is given as “Competitive inhibition”. The Ki (UGT1A1 [3]) was 10 ± 0.611 µM and the Ki (rUGT1A1) was 4.85 ± 0.528 µM.
In the case of `COc1cc(O)c2c(c1)C(=O)c1cc(C)cc(O)c1C2=O` [Physcion], the Ki (UGT1A1 [1]; [4]) is reported as 94.7 µM and the Mode of inhibition (UGT1A1 [1]) is reported as “Non-Competitive inhibition”.
In the case of `Cc1cc(O)c2c(c1)C(C1c3cc(C)cc(O)c3C(=O)c3c(OC4OC(CO)C(O)C(O)C4O)cc(O)cc31)c1cc(O)cc(O)c1C2=O` (stereo not drawn) [Polygonumnolide C2], the Ki (UGT1A1 [1]; [4]) is reported as 4.29 µM, the Mode of inhibition (UGT1A1 [1]) is reported as “Non-Competitive inhibition” and the Ki at 10 min (UGT1A1 [1]; rat, pH 7.4, probe bilirubin (0.12-1.37 μM), Ki value, bilirubin substrate, extract concentration based on emodin content) is reported as 4.22 µM.
For `Cc1cc(O)c2c(c1)C(C1c3cc(C)cc(O)c3C(=O)c3c(OC4OC(CO)C(O)C(O)C4O)cc(O)cc31)c1cc(O)cc(O)c1C2=O` (stereo not drawn) [Polygonumnolide C3], the Ki (UGT1A1 [1]; [4]) was 12.9 µM and the Mode of inhibition (UGT1A1 [1]) was “Non-Competitive inhibition”.
For `Cc1cc(O)c2c(c1)C(C1c3cc(C)cc(O)c3C(=O)c3c(OC4OC(CO)C(O)C(O)C4O)cc(O)cc31)c1cc(O)cc(O)c1C2=O` (stereo not drawn) [Polygonumnolide C4], the Ki (UGT1A1 [1]; [4]) was 77.4 µM and the Mode of inhibition (UGT1A1 [1]) was “Un-Competitive inhibition”.
In the case of `O=C(O)c1cc(O)c2c(c1)C(=O)c1cccc(O)c1C2=O` [Rhein], the Ki (UGT1A1 [1]; [4]) is reported as 127 µM and the Mode of inhibition (UGT1A1 [1]) is reported as “Mixed Type inhibition”.
In the case of `Cc1cc(O)c2c(c1)C(C1c3cc(C)cc(O)c3C(=O)c3c(O)cc(O)cc31)c1cc(O)cc(O)c1C2=O` (stereo not drawn) [Trans-emodin dianthrones], the Ki (UGT1A1 [1]; [4]) is reported as 1.08 µM and the Mode of inhibition (UGT1A1 [1]) is reported as “Competitive inhibition”.
